Data reported in article PMC11500415, “Chemical inhibition of stomatal differentiation by perturbation of the master-regulatory bHLH heterodimer via an ACT-Like domain” (Nature Communications, 2024).
Values joined by “and” are separate entries in the source; they are usually repeats but may differ in a detail not shown here. Equal values may be shown once. “Also recorded” adds a separate entry of the source.

Assays:
[1] = test system: Arabidopsis stomatal development mutants (spch, mute, fama, er, erl1, erl2, hdg2, atml1, scrm, scrm2, scrm-D and suppressors); test: Stomatal development bioassay in mutant seedlings, liquid culture; format: in vivo; settings: 50 μM; for meristemoids density: single seedlings n=8 (Fig. 3c)
Method: Arabidopsis accession Columbia (Col-0) was used as wild-type. […] Their genotype and transcript reduction were confirmed. The presence of transgenes/mutant alleles were confirmed by genotyping. For liquid culture with Stomidazolone (AYSJ929, compound 3), the analogs (AYSJ1059 (compound 5) and AYSJ1061 (compound 6)), degraded compound lzx103 (compound 4), and SIM3* (compound 7), all compounds were dissolved in dimethyl sulfoxide (DMSO, Molecular biology grade, Fujifilm Wako, Japan 046-21981), Col-0 seeds were sown in 96-well plates (TL5003; True Line) containing 95 μL of 1/2 MS media containing 0.5% sucrose with rotary shaking at 140 rpm under continuous light at 22 °C. Five μL of compounds were dissolved in DMSO at 10 mM and diluted with liquid 1/2 MS media to 1 mM and added on 1-day-old seedlings (final concentration, 50 μM). Seedlings were incubated for 8 days, and at day 9 seedling abaxial cotyledons were observed through confocal microscopy. For liquid culture of scrm-D_S343 and scrm-D_S423, 1/2 MS liquid media without sucrose was used. For the solid culture, 0, 20, 50 or 100 μM Stomidazolone were solidified with low-melting agarose (5805S, PrimeGelTM Agarose LMT 1-20 K, TAKARA Bio). Briefly, 1/2 MS salt, 0.5% sucrose, and 0.8% low melting agarose were mixed in water and autoclaved. After cooling the medium at around 30 °C, Stomidazolone (500x, dissolved in DMSO) was added and poured into 90 mm petri dishes (Asnol Petri Dish JP φ90 x 15 mm, 3-1491-01, AS ONE). Col-0 seeds were sown on Stomidazolone-containing 1/2 MS agarose media and grown under continuous light for 9 days.
For confocal microscopy, cell peripheries of seedlings were visualized with propidium iodide (Sigma, P4170). Images were acquired using LSM800 or LSM700 (Zeiss) using a 20x lens. The GFP, YFP reporter and PI signals were detected with excitation at 488 nm and an emission filter of 410 to 546 nm, at 488 nm and an emission filter of 410 to 546 nm, and with excitation at 561 nm and 582–617 nm emission range, respectively. Raw data were collected with 1024 × 1024 pixel images. For qualitative image presentation, Adobe Photoshop CC was used to trim and uniformly adjust the contrast/brightness.
For quantitative analysis of the abaxial leaf epidermis, confocal images were taken on the days after germination as indicated in the Figure legends. Preparation of images was done as described previously[32],[70]. For counting epidermal cell types, stomatal density, stomatal precursor cells (meristemoids), total stomata-lineage cells (stomata and meristemoids) were calculated by counting cell types in an area of 0.4 mm^2 (0.63 mm × 0.63 mm) and plotted as per mm^2. A series of Z-stack confocal images was obtained to obtain images covering the epidermis and capturing GFP/YFP signal from the reporter lines. The area and the number of epidermal cells were quantified by using FIJI-ImageJ. Statistical analyses were performed using R ver. 4.0.2. Sample sizes (n) are indicated and defined in each legend. For the multiple sample comparison, 1-way ANOVA was performed followed by a post hoc Tukey HSD test. For the two-sample comparison, Student’s T-test was performed. Graphs were generated using R ggplot2 package. For all boxplots, each box represents IQR (interquartile range), in which top, middle line, and bottom indicating 75, 50, and 25 percentiles, respectively, and the bar representing maximum to minimal values. Each magenta dot represents jittered individual data point. The datapoints that go beyond the bar are outliers, which are indicated as black dots. If the data point is greater than Q3 + 1.5*IQR (above the third quartile is greater than 1.5 times of the interquartile range) or less than Q1 − 1.5*IQR, that data point is classified as outlier. The color of Boxplot graph was based on ColorBrewer.org. The value of n, the number of each experiment or samples, the means of error bars, and how statistical significance was defined are indicated in a relevant figure legend. […]

[2] = test system: Commelina benghalensis stomatal opening induced by light; test: Measurement of stomatal opening; format: in vivo; settings: 50 µM; light 3 h (Supplementary Fig. 1)
Method: The experiments were performed as described previously[30],[68]. Briefly, Stomidazolone or ABA were added to a multi-well plate with basal buffer [5 mM MES/bistrispropane (pH 6.5), 50 mM KCl, and 0.1 mM CaCl2] to be diluted to a final concentration of 50 or 20 µM, respectively. C. benghalensis plants were incubated in the dark overnight; then, 4 mm diameter leaf discs were excised from fully expanded leaves using a hole punch (Biopsy Punch, Kai Medical). Samples were immersed in a basal buffer containing compounds for 30 min before being exposed to light (150 µmol m^−2 s^−1 red light and 50 µmol m^−2 s^−1 blue light) for 3 h. The stomatal apertures were observed using a stereoscopic microscope (BX43; Olympus). The microscopic images were acquired with a charge-coupled device (CCD) camera (DP27; Olympus), followed by autofocus image processing using cellSens standard software (Olympus). Measurement of stomatal apertures of C. benghalensis was performed by using an automation program, DeepStomata[69].

[3] = target: T1, MUTE+AD (control yeast) (Arabidopsis thaliana, UniProt Q9M8K6); test: Y2H quantitative α-galactosidase assay, control pair MUTE+AD; format: cell-based; settings: individual replicates, listed as AYSJ929
T1 construct: expressed in transfected cells; host or cells: yeast strain AH109
T1 sequence (Q9M8K6 1-202): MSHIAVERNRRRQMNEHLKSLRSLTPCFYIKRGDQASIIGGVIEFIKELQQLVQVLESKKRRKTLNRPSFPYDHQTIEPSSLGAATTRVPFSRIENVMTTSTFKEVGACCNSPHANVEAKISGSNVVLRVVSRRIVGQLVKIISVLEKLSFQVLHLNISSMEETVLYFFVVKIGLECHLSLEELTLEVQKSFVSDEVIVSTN
Description: Supplement 41467_2024_53214_MOESM7_ESM.xlsx, sheet "Fig.6b" | column: a-galactosidase [milliunits /(ml x cell)]

[4] = er erl1, single seedlings n=8 (Fig. 4f)
[5] = scrm-D_S343, single seedlings n=8 (Fig. 5n)

O=C1C(c2ccccc2)=NC(NS(=O)(=O)c2ccccc2)(c2ccccc2)N1S(=O)(=O)c1ccccc1 (centres unmarked) [Stomidazolone]
effect on epidermal phenotype (in words) ([1]; er (er-105)): the number of stomata drastically decreased and the meristemoids vastly increased | effect on epidermal phenotype (in words) ([1]; er erl1): did not reduce the number of stomata, although it increased the number of meristemoids | Stomata density [1, 4]: 204 per mm2 and 275 per mm2 and 292 per mm2 | Total (stomata+meristemoid) density [1, 4]: 382 per mm2 and 272 per mm2 and 360 per mm2 and 323 per mm2 and 292 per mm2 and 347 per mm2 and 369 per mm2 | effect on epidermal phenotype (in words) ([1]; er erl1 erl2): insensitive | Meristemoid density ([1]; er erl1 erl2, single seedlings n=8 (Fig. 4j, replotted 4k)): 0 per mm2 | effect on epidermal phenotype (in words) ([1]; er erl2): The number of arrested meristemoids is even more increased | effect on epidermal phenotype (in words) ([1]; fama): significantly reduced the number of fama tumors whereas increasing the number of arrested meristemoids | effect on epidermal phenotype (in words) ([1]; hdg2): increased the meristemoid numbers of hdg2 epidermis while the total numbers of stomata and meristemoids were unaffected | Total (stomata+meristemoid) density ([1]; hdg2 (hdg2-2), single seedlings n=8 (Fig. 4m)): 149 per mm2 and 112 per mm2 and 171 per mm2 and 93 per mm2 and 137 per mm2 and 107 per mm2 and 141 per mm2 | effect on epidermal phenotype (in words) ([1]; hdg2 atml1): hypersensitivity | Total (stomata+meristemoid) density ([1]; hdg2 atml1 (hdg2-2 atml1-3), single seedlings n=8 (Fig. 4o)): 92 per mm2 and 141 per mm2 and 156 per mm2 and 153 per mm2 and 112 per mm2 and 109 per mm2 | effect on epidermal phenotype (in words) ([1]; mute): not enhanced | meristemoids density ([1]; mute (mute-1)): 296 per 1 mm2 and 243 per 1 mm2 and 204 per 1 mm2 and 289 per 1 mm2 and 350 per 1 mm2 and 267 per 1 mm2 and 187 per 1 mm2 | effect on epidermal phenotype (in words) ([1]; scrm2-1): reduction of the number of stomata with meristemoid arrests | Stomatal index SI (%) ([1]; scrm2-1, single seedlings n=8 (Fig. 5f)): 25.2% and 23.5% and 22.4% and 18.0% and 27.0% and 24.1% and 26.7% and 15.5% | effect on epidermal phenotype (in words) ([1]; scrm (ice1-2)): severely reduced stomatal lineage initiation | effect on epidermal phenotype (in words) ([1]; scrm scrm2-1): no effects | Stomatal index SI (%) ([1]; scrm scrm2-1, single seedlings n=7 (Fig. 5h)): 0% | effect on epidermal phenotype (in words) ([1]; scrm-D): not affected | Stomatal index SI (%) ([1]; scrm-D, single seedlings n=8 (Fig. 5j)): 100.0% and 99.0% and 98.0% | SI (%) [1, 5]: 10.3% and 14.9% and 8.1% and 11.9% and 12.8% and 12.5% and 9.6% and 12.1% | small cells index (%) [1, 5]: 31.8% and 53.1% and 60.4% and 54.1% and 50.8% and 47.7% and 36.1% | effect on epidermal phenotype (in words) ([1]; scrm-D_S343 and scrm-D_S423): triggered excessive formation of arrested meristemoids | effect on epidermal phenotype (in words) ([1]; scrm-D_S343 scrm2-1 and scrm-D_S423 scrm2-1): insensitivity | SI (%) ([1]; scrm-D_S423, single seedlings n=8 (Fig. 5p)): 0.7% and 1.2% and 0.0% and 1.4% and 3.0% | effect on epidermal phenotype (in words) ([1]; spch): no effects | meristemoids density ([1]; spch (spch-3)): 0 per 1 mm2 | effect on stomatal movement (in words) [2]: did not exhibit any discernable effects; also recorded: does not affect | a-galactosidase ([3]; 10 µM): 0.24 milliunits /(ml x cell) and 0.60 milliunits /(ml x cell) and 0.40 milliunits /(ml x cell) | a-galactosidase ([3]; 50 µM): 0.22 milliunits /(ml x cell) and 0.36 milliunits /(ml x cell) and 0.19 milliunits /(ml x cell) | a-galactosidase ([3]; 100 µM): 0.20 milliunits /(ml x cell) and 0.52 milliunits /(ml x cell) and 0.42 milliunits /(ml x cell)
